{
  "source": "paper PMC8140105",
  "about": "(Scientific Reports, 2021)",
  "key": {"[1]": {"test_system": "BV-2 microglia cells", "assay": "IL-6 and TNFα determination (ELISA)", "assay_type": "cell-based, murine", "details": "BV-2 cells, 10 µM; for microglial activating properties of metabolites (IL-6 production): n = 12", "procedure": "BV-2 cells were a kind gift from Prof. Alba Minelli and were grown in RPMI medium supplemented with 10% fetal bovine serum (FBS) and 1% penicillin-streptromycin solution (Life Technologies, Belgium). The cells were cultured in culture flasks (Greiner, Belgium) in an incubator set at 37 °C and 5% CO2. When confluent, cells were detached using a cell scraper and diluted 1:20 approximately every 4 days. Experiments were performed in serum-free DMEM without phenol red.\nTo investigate the microglia activating properties of the peptide, IL-6 and TNFα levels were determined in cell-free supernatants of BV-2 microglia cells after treatment. BV-2 cells (2 × 10^5 cells/well) were seeded in 24-well plates and treated with peptide for 20 h. ELISA was performed according to the supplier’s protocol (eBioscience, Vienna, Austria). Briefly, after incubation with biotinylated detection antibody, avidin-HRP conjugate and subsequently chromogenic tetramethylbenzidine (TMB) substrate were added. Absorbance was measured at 450 nm and 570 nm using the Multiskan Ascent 354 microplate reader (Thermofisher, Waltham, USA). Concentrations were determined using the standard curve generated using known concentrations of TNFα and IL-6."}, "[2]": {"assay": "Multiple time regression (MTR) analysis, blood-to-brain influx", "assay_type": "in vivo, ICR-CD-1 mice", "details": "125I-labelled, mice, linear model, mean ± standard error", "procedure": "Briefly, 0.1 µmol of the lyophilized peptide was dissolved in 100 µL of phosphate buffer (pH 7.4, 25 mM). A Iodo-Gen coated tube (Thermo Scientific, Merelbeke, Belgium) was first of all rinsed with 1 mL of phosphate buffer. Subsequently, 50 µL of sodium iodide solution (1.1 µmol/mL) and 1 mCi of Na^125I solution (Perking Elmer, Zaventem, Belgium) were transferred into this Iodo-Gen coated tube. The oxidation reaction was allowed to proceed for six minutes at room temperature, after which the iodonium solution was transferred to 50 µL of peptide solution (1 mM). The iodination reaction of the peptide was allowed to proceed for another six minutes at room temperature. Finally, the iodinated peptide was purified using a silver filter (Thermo Scientific, Merelbeke, Belgium).\nIn order to determine whether the peptide could enter the brain, in vivo multiple time regression (MTR) analysis was performed. ICR-CD-1 mice were anesthetized intraperitoneally using a 40% urethane solution (3 g/kg). […] At specified time points after injection (i.e. 1, 3, 5, 10, 12.5 and 15 min, with start and end in duplicate), blood was obtained from the carotid artery followed by decapitation of the mouse. The isolated brain was weighed and radioactivity measured in a gamma counter for 5 min (Wallac Wizard automatic gamma counter, Perkin Elmer, Shelton, CT, USA), as well as from 50 µL serum, which was obtained by centrifuging the collected blood at 10,000g for 15 min at 21 °C. The linear and biphasic modeling of the multiple time regression analysis was performed as previously described."}, "[3]": {"assay": "serum", "details": "37 °C, up to 60 min"}, "[4]": {"assay": "liver homogenate", "details": "ICR-CD-1 mice, 37 °C, up to 60 min"}, "[5]": {"assay": "kidney homogenate", "details": "ICR-CD-1 mice, 37 °C, up to 60 min"}, "[6]": {"assay": "faeces homogenate", "details": "ICR-CD-1 mice, 37 °C, up to 60 min"}, "[7]": {"assay": "brain homogenate", "details": "ICR-CD-1 mice, 37 °C, up to 60 min"}},
  "note": "Entries after “also recorded” stand apart in the source; their conditions may differ. No end group written: not given here.",
  "data": [
    {"substance": "DEHSFLP [DEHSFLP]", "values": [
      {"measurement": "activating properties (IL-6 and TNFα production)", "setting": "[1]; scrambled control", "value": "no activating properties"}
    ]},
    {"substance": "DLPF [metabolite of PapRIV formed in serum]", "values": [
      {"measurement": "microglial activating properties of metabolites (IL-6 production)", "setting": "[1]", "value": "no activating properties"}
    ]},
    {"substance": "DLPFEH [main metabolite of PapRIV formed in all matrices]", "values": [
      {"measurement": "microglial activating properties of metabolites (IL-6 production)", "setting": "[1]", "value": "to the same extent as the native sequence"}
    ]},
    {"substance": "Dermorphin [reference compound]", "values": [
      {"measurement": "Kin", "setting": "[2]; i.v. (jugular vein), 1–15 min", "value": "0.35 ± 0.05", "unit": "µL/g/min"},
      {"measurement": "Vascular brain distribution volume, V0", "setting": "[2]; i.v.", "value": "15.93 ± 0.64", "unit": "µL/g"}
    ]},
    {"substance": "SDLPF [metabolite of PapRIV formed in serum]", "values": [
      {"measurement": "microglial activating properties of metabolites (IL-6 production)", "setting": "[1]", "value": "no activating properties"}
    ]},
    {"substance": "SDLPFEH", "values": [
      {"measurement": "cleaved bond", "setting": "[3]", "value": "S1-D2, major; also recorded: D2-L3; also recorded: F5-E6; also recorded: E6-H7"},
      {"measurement": "cleaved bond", "setting": "[4]", "value": "S1-D2, major; also recorded: D2-L3"},
      {"measurement": "cleaved bond", "setting": "[5]", "value": "D2-L3; also recorded: S1-D2, major"},
      {"measurement": "cleaved bond", "setting": "[6]", "value": "S1-D2, major"},
      {"measurement": "cleaved bond", "setting": "[7]", "value": "S1-D2, major and D2-L"}
    ]}
  ]
}
